Converted amounts (≈) assume the structure as drawn.
What was measured:
[1] = system: Mycobacterium tuberculosis; assay: microbe, parasite or virus in culture; details: H37Rv, 168 h
Proteus vulgaris = assay: microbe, parasite or virus in culture
Klebsiella pneumoniae = assay: microbe, parasite or virus in culture
Enterococcus faecalis = assay: microbe, parasite or virus in culture
Proteus mirabilis = assay: microbe, parasite or virus in culture
Bacillus subtilis = assay: microbe, parasite or virus in culture
Streptococcus pyogenes = assay: microbe, parasite or virus in culture
Staphylococcus aureus [2] = assay: microbe, parasite or virus in culture; details: ATCC 29213
[3] = buffer, 18 h, pH 7.4
Streptococcus pneumoniae = assay: microbe, parasite or virus in culture
Acinetobacter = assay: microbe, parasite or virus in culture
Staphylococcus aureus [4] = assay: microbe, parasite or virus in culture; details: NRS70
Escherichia coli = assay: microbe, parasite or virus in culture; details: K-12
[5] = molecular target: T1, Bifunctional epoxide hydrolase 2 (Homo sapiens, UniProt P34913)
T1 sequence (P34913 whole entry): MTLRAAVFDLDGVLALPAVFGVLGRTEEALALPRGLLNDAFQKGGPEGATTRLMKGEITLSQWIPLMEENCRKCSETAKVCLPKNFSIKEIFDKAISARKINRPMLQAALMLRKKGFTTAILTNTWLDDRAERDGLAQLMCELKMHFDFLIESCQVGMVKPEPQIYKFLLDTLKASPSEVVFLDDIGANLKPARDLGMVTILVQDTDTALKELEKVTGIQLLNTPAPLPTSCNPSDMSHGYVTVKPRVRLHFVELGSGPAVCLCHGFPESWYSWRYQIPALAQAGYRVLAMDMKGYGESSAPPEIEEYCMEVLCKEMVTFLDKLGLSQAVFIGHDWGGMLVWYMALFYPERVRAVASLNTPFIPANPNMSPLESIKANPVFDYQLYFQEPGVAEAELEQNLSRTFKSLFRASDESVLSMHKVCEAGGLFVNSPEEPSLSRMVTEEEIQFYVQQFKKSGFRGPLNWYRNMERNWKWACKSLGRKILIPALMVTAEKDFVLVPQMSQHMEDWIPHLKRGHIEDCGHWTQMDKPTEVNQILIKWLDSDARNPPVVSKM

Pseudomonas aeruginosa = assay: microbe, parasite or virus in culture
Bacillus anthracis = assay: microbe, parasite or virus in culture; details: Sterne
Burkholderia cepacia = assay: microbe, parasite or virus in culture

| Structure (SMILES) | MIC [1] | MIC (Proteus vulgaris) | MIC (Klebsiella pneumoniae) | MIC (Enterococcus faecalis) | MIC (Proteus mirabilis) | MIC (Bacillus subtilis) | MIC (Streptococcus pyogenes) | MIC (Staphylococcus aureus [2]) | solubility [3] | MIC (Streptococcus pneumoniae) | MIC (Acinetobacter) | MIC (Staphylococcus aureus [4]) | MIC (Escherichia coli) | IC50 [5] | MIC (Pseudomonas aeruginosa) | MIC (Bacillus anthracis) | MIC (Burkholderia cepacia) |
| --- | --- | --- | --- | --- | --- | --- | --- | --- | --- | --- | --- | --- | --- | --- | --- | --- | --- |
| Cc1noc(NS(=O)(=O)c2ccc(NC(=O)NC34CC5CC(CC(C5)C3)C4)cc2)c1C | 25 µg/mL (≈ 56.2 µM) | > 200 µg/mL | > 200 µg/mL | > 200 µg/mL | > 200 µg/mL | > 200 µg/mL | > 200 µg/mL | > 200 µg/mL | 27.3 µg/mL (≈ 61.4 µM) | > 200 µg/mL | > 200 µg/mL | > 200 µg/mL | > 200 µg/mL | 31 nM | > 200 µg/mL | > 200 µg/mL | > 200 µg/mL |
| O=C(Nc1ccncc1)NC12CC3CC(CC(C3)C1)C2 | 18 µg/mL (≈ 66.3 µM) | > 200 µg/mL | > 200 µg/mL | > 200 µg/mL | > 200 µg/mL | > 200 µg/mL | > 200 µg/mL | > 200 µg/mL | 7 µg/mL (≈ 25.8 µM) | > 200 µg/mL | > 200 µg/mL | > 200 µg/mL | > 200 µg/mL | 174 nM | > 200 µg/mL | > 200 µg/mL | > 200 µg/mL |
| O=C(Nc1cccnc1)NC12CC3CC(CC(C3)C1)C2 | 12.5 µg/mL (≈ 46.1 µM) | > 200 µg/mL | > 200 µg/mL | > 200 µg/mL | > 200 µg/mL | > 200 µg/mL | > 200 µg/mL | > 200 µg/mL | 6.7 µg/mL (≈ 24.7 µM) | > 200 µg/mL | > 200 µg/mL | > 200 µg/mL | > 200 µg/mL | 113 nM | > 200 µg/mL | > 200 µg/mL | > 200 µg/mL |
| O=C(Nc1ncccn1)NC12CC3CC(CC(C3)C1)C2 | 200 µg/mL (≈ 734 µM) | > 200 µg/mL | > 200 µg/mL | > 200 µg/mL | > 200 µg/mL | > 200 µg/mL | > 200 µg/mL | > 200 µg/mL | 6.9 µg/mL (≈ 25.3 µM) | > 200 µg/mL | > 200 µg/mL | > 200 µg/mL | > 200 µg/mL | 24000 nM | > 200 µg/mL | > 200 µg/mL | > 200 µg/mL |
| O=C(Nc1ccncn1)NC12CC3CC(CC(C3)C1)C2 | 25 µg/mL (≈ 91.8 µM) | > 200 µg/mL | > 200 µg/mL | > 200 µg/mL | > 200 µg/mL | 50 µg/mL (≈ 184 µM) | > 200 µg/mL | 100 µg/mL (≈ 367 µM) | 15.5 µg/mL (≈ 56.9 µM) | 50 µg/mL (≈ 184 µM) | > 200 µg/mL | > 200 µg/mL | > 200 µg/mL | 775 nM | > 200 µg/mL | > 200 µg/mL | 200 µg/mL (≈ 734 µM) |
| O=C(Nc1ncncn1)NC12CC3CC(CC(C3)C1)C2 | 125 µg/mL (≈ 457 µM) | > 200 µg/mL | > 200 µg/mL | > 200 µg/mL | > 200 µg/mL | > 200 µg/mL | > 200 µg/mL | > 200 µg/mL | 7.2 µg/mL (≈ 26.3 µM) | > 200 µg/mL | > 200 µg/mL | > 200 µg/mL | > 200 µg/mL | 79 nM | > 200 µg/mL | > 200 µg/mL | > 200 µg/mL |
| O=C(Nc1nccnn1)NC12CC3CC(CC(C3)C1)C2 | 200 µg/mL (≈ 732 µM) | > 200 µg/mL | > 200 µg/mL | > 200 µg/mL | > 200 µg/mL | > 200 µg/mL | > 200 µg/mL | > 200 µg/mL | 6.8 µg/mL (≈ 24.9 µM) | > 200 µg/mL | > 200 µg/mL | > 200 µg/mL | > 200 µg/mL | 1010 nM | > 200 µg/mL | > 200 µg/mL | > 200 µg/mL |
| O=C(Nc1ccon1)NC12CC3CC(CC(C3)C1)C2 | 50 µg/mL (≈ 191 µM) | > 200 µg/mL | > 200 µg/mL | 100 µg/mL (≈ 383 µM) | > 200 µg/mL | > 200 µg/mL | > 200 µg/mL | > 200 µg/mL | 20.3 µg/mL (≈ 77.7 µM) | > 200 µg/mL | > 200 µg/mL | > 200 µg/mL | > 200 µg/mL | 46 nM | > 200 µg/mL | > 200 µg/mL | 100 µg/mL (≈ 383 µM) |
| Cc1cc(NC(=O)NC23CC4CC(CC(C4)C2)C3)no1 | 27 µg/mL (≈ 98.1 µM) | > 200 µg/mL | > 200 µg/mL | > 200 µg/mL | > 200 µg/mL | 200 µg/mL (≈ 726 µM) | > 200 µg/mL | 200 µg/mL (≈ 726 µM) | 25.9 µg/mL (≈ 94.1 µM) | > 200 µg/mL | > 200 µg/mL | > 200 µg/mL | > 200 µg/mL | 136 nM | > 200 µg/mL | > 200 µg/mL | > 200 µg/mL |

From ChEMBL document CHEMBL2390858, “Design, synthesis and anti-tuberculosis activity of 1-adamantyl-3-heteroaryl ureas with improved in vitro pharmacokinetic properties” (Bioorg Med Chem, 2013)
